Data: PMC10447463, “Data-mining unveils structure–property–activity correlation of viral infectivity enhancing self-assembling peptides” (Nature Communications, 2023)

Key:
[1] = Zeta-potential measurement; format: physicochemical; parameters: Zeta-Potential: unit not given here; conditions: for Zeta-pot. / mV: zeta potential of peptide, Fig S15 source data
Experimental: (§1) 4 µL of 1 mg/mL peptide fibrils solution is added to a 20 µL, 50 µM ThT–solution in PBS. The mixture is incubated for 15 min at RT to allow binding of ThT dye with β–sheet rich structures. For reference PBS (4 µL) was added instead of peptide fibril solution. The samples were placed in black UV Star® 384 microliter well–plates (Greiner bio–one). Fluorescence spectra were recorded on an Infinite® M1000 PRO microplate reader (Tecan) at λem = 488 nm upon excitation at λex = 440 nm with 10 nm bandwidths and multiple reads per well (3×3). Measurements were repeated in triplicates and averaged with standard deviation. […] Zeta-Potential. For the determination of the surface charge of aggregated peptides zeta-potential measurements were conducted with a Zetasizer Nano ZS, Malvern Instruments. Unless stated otherwise the peptides were dissolved from DMSO (10 mg/mL) in PBS (pH 7.4) to concentration of 1 mg/mL and incubated for 1d at RT. Just before the measurement the 60 µL of the peptides were further diluted in 600 µL KCl (aq, 1 mM) in a 1 mL disposable folded capillary cells (DTS–1060, Zetasizer Nano series, Malvern). The zeta potential of the peptides was derived from the electrophoretic mobility based on the Smoluchowski formula. All measurements were averaged over two individually performed experiments and conducted in triplicates for each sample. Aggregate analysis. […] Furthermore, fluorescence microscopy was conducted by staining 1 µL preformed fibrils (1 mg/mL) with 9 µL ThT (50 µM). Brightfield microscopy was performed simultaneously to evaluate aggregation also for non ThT-active fibrils. The measurements were performed on a Leica DMi8 microscope with 10x air objective and equipped with a Leica MC170 HD camera with a filter setting λem = 527/30 nm upon excitation at λex = 480/40 nm) and processed with the Leica LASX software. To quantify size and number of microscopic aggregation of particles > 10 µm^2 at least 3 independently measured images were analyzed via the 3D object counter analysis tool of ImageJ, v 1.53f51. Sum–frequency generation. The SFG experiments were carried out with a femtosecond Ti: Sapphire amplified laser system (Spitfire Ace, Spectra–Physics, 800 nm, 40 fs, 1 kHz) with 5 W output power. We used 2 W to pump an optical parametric amplifier (TOPAS, light conversion) with a non–collinear difference frequency generation stage to generate broadband IR pulses. Another 1 W of the laser output passed through an etalon to generate narrowband visible pulses (10 cm^-1). The incident angles of the visible and IR beams were 36° and 41° with respect to the surface normal, respectively. The visible (13 µJ) and IR (5 µJ) pulses were overlapped spatially and temporally at the sample position. Subsequently, the generated SFG pulse was guided into a spectrograph (Acton SP 300i, Princeton Instruments), and detected with an EMCCD (Newton, Andor Technology). To avoid IR absorption of water vapor, we purged N2 for the measurement. All spectra were collected in the ssp (denoting s-, s- and p-polarized SFG, visible and IR, respectively) polarization combination. The spectra were normalized to the non–resonant signal taken from z–cut quartz after subtracting a background spectrum. […]

[2] = tested on: HIV-1 infection of TZM-bl cells; experiment: HIV-1 infectivity enhancement assay, β-galactosidase luminescence; format: cell-based; conditions: for Log10 Inf. rel. to EF-C: log10 of HIV-1 infection of TZM-bl cells relative to EF-C, Fig S15 source data, asymmetric std dev errors
[3] = Turbidity, derived count rate of scattered light; format: physicochemical; conditions: derived count rate of scattered light
Experimental: as §1
ways to determine turbidity of samples, this can be via transmittance and via scattering. Transmittance […]
as it is an easy and fast method.10,11 However, transmittance contributes not only from µm-sized aggregates but also nm-sized aggregates such as distinct fibrils, which makes hard to distinguish between fibril formation and micrometer sized aggregation. Although dynamic light scattering is a frequently applied method for determination of particle size, it cannot be conducted in solutions with anisotropic aggregates in micrometer size range, since the Stokes-Einstein relation is only applicable for homogeneous […] spherical particles.12 Further models describing scattering intensity and […]

[4] = infectivity class (low / medium / high) of the peptide in the sequence-pattern analysis, Fig. S22-A4, class limits not given
[5] = infectivity class (low / medium / high) of each library peptide, main list in c1-c6, same classes repeated in sub-lists of sequences containing the hydrophobicity/charge patterns P+,H0,P+,H0,P0,H0,P0, P+,H0,P0,H0,P0,H0,P0, P+,H0,P0,H0

Row | Substance | Zeta-pot. / mV [1] [mV] | Log10 Inf. rel. to EF-C [2] | infectivity [2, 5] | also measured
1 | CKIKQIIRGD [psis22] | 13.2 | -1.311 | – | infectivity [2, 4]: low
2 | EFEFQF [KB11] | -24.5 | -2.485 | low | –
3 | EIEIEIEI [JR12] | -8.92 | -1.748 | low | –
4 | EIKIQINM [TM73] | -22.33 | -1.001 | low | infectivity [2, 4]: low
5 | FDPFDPFDP [CN24] | -10.9 | -1.6317 | low | –
6 | FKFDKFKFDK [CN26] | -12.7 | -1.334 | low | –
7 | HGDKCHGDKC [CN2] | -11.63 | -1.991 | low | –
8 | HGEHGE [CN6] | -12.6 | -2.193 | low | –
9 | HGEHGEHGE [CN7] | -24.2 | -1.72 | low | –
10 | HHHHEIEIEIEI [JR9] | -6.91 | -1.534 | low | –
11 | HRRHFRHKITKKK [CN29] | -9.223 | -1.868 | low | –
12 | IKVAVKIKIQINM [TM74] | 14.5 | -0.3046 | medium | –
13 | ILKNLSRSRKIKIQIC [TM116] | 18 | -0.4741 | medium | –
14 | KFKFEFEF [MGe01] | -2.55 | -1.547 | – | infectivity [2, 4]: low
15 | KIEIQINM [NM6] | -0.35 | -1.458 | – | infectivity [2, 4]: low
16 | KIRGKFEKED [CN30] | -12.7 | -1.2355 | low | –
17 | KKFQKKFQ [CN21] | -9.19 | -1.545 | low | –
18 | KNDKND [CN5] | -15 | -1.978 | low | –
19 | KNERIKNERI [CN3] | -16 | -1.888 | low | –
20 | KVKGVGK [CN27] | -12.8 | -1.587 | low | –
21 | KYKGAIIGNIK [CN19] | -9.14 | -2.508 | low | –
22 | Lysozyme | – | – | – | Zeta Potential ([1]; mean of n = 3): 4.807; Zeta-Potential ([1]; replicate 1): 4.05; Zeta-Potential ([1]; replicate 2): 5.03; Zeta-Potential ([1]; replicate 3): 5.34; Count Rate ([3]; mean of n = 3): 217.9 kcps; Count Rate ([3]; replicate 1): 304.4 kcps; Count Rate ([3]; replicate 2): 195.7 kcps; Count Rate ([3]; replicate 3): 153.6 kcps
23 | MDQMDQMDQMDQMDQ [CN23] | -14.98 | -2.37 | low | –
24 | MKFM [CN32] | -16 | -1.756 | low | –
25 | NMWQKVGTPL [JG7] | -9.62 | -1.607 | low | –
26 | PPFHPPPFHP [CN22] | -15.8 | -1.751 | low | –
27 | RGDKIRGDKI [CN4] | -13.57 | -2.126 | low | –
28 | RPRGLLLGNLR [CN20] | -8.15 | -1.3163 | low | –
29 | SISISRRI [CN28] | -17 | -1.548 | low | –
30 | TKTLTKTL [CN25] | -25.1 | -1.671 | low | –
